Where two headings read alike, the source gives them in different places.
Columns and labels:
HEK-293T cells = experiment: MTT reduction cytotoxicity assay; assay type: cell-based; conditions: Homo sapiens, HEK-293T, 72 h, HEK-293T, MTT, 72 h; read-out: HEK IC50
Trichophyton rubrum [1] = experiment: MIC/MFC broth microdilution (CLSI); conditions: Trichophyton rubrum
Procedure: (§1) Antifungal susceptibility was determined by broth microdilution according to the CLSI guidelines described in M27-Ed4 ([16]). […] MFC was determined by back-plating drug-treated cultures from MIC broths onto SDA plates. The MFC was defined as the lowest concentration from which no colonies could be cultured.

Candida albicans [2] = experiment: checkerboard drug interaction (FICI, MICc);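 for all read-outs here: antifungal plus FPPS inhibitor combinations on Candida albicans tested by a simplified diagonal checkerboard screen, with FICI calculated under the Loewe additivity model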; assay type: cell-based; conditions: C. albicans; for INH FD (MIC-MICc fold decrease): fold decrease of inhibitor MIC
Procedure: (§2) Drug interactions between antifungals and FPPS inhibitors were investigated using a simplified checkerboard diagonal screening method ([45]). […] FICIs were determined according to the Loewe additivity model ([17]).

Aspergillus flavus [3] = experiment: MIC/MFC broth microdilution (CLSI); conditions: ATCC204304
Procedure: as §1

[4] = tested on: Cryptococcus deuterogattii; experiment: checkerboard drug interaction (FICI, MICc);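 for all read-outs here: simplified diagonal checkerboard screen pairing antifungal drugs with FPPS inhibitors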; assay type: cell-based; conditions: C. deuterogattii; for INH FD (MIC-MICc fold decrease): fold decrease of inhibitor MIC
Procedure: as §2

Cryptococcus neoformans [5] = experiment: checkerboard drug interaction (FICI, MICc);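 for all read-outs here: antifungal plus FPPS inhibitor pairs tested against Cryptococcus neoformans by simplified diagonal checkerboard screening, FICI computed under the Loewe additivity model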; assay type: cell-based; conditions: C. neoformans; for INH FD (MIC-MICc fold decrease): fold decrease of inhibitor MIC
Procedure: as §2

[6] = tested on: Cryptococcus deuterogattii; experiment: MIC/MFC broth microdilution (CLSI); conditions: Cryptococcus deuterogattii;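 note: broth microdilution per CLSI M27-Ed4. MFC is the lowest concentration yielding no colonies when MIC broths are subcultured onto SDA plates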
Procedure: as §1

Aspergillus fumigatus [7] = experiment: MIC/MFC broth microdilution (CLSI); conditions: ATCC204305
Procedure: as §1

Aspergillus flavus [8] = experiment: checkerboard drug interaction (FICI, MICc);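 note: simplified diagonal checkerboard screen pairing azole antifungals with FPPS inhibitors, FICI calculated under the Loewe additivity model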; assay type: cell-based; parameters: INH MICc (KET:INH) / INH MICc (FLC:INH): unit not given beside the values; conditions: A. flavus
Candida glabrata [9] = experiment: MIC/MFC broth microdilution (CLSI); conditions: Nakaseomyces glabratus, CBS138;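 note: broth microdilution following CLSI M27-Ed4, MFC taken as the lowest drug level yielding no growth once MIC wells were subcultured on SDA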
Procedure: as §1

eight fungal species [10] = experiment: MIC/MFC summary across the eight fungal species of Table 1; assay type: cell-based
Procedure: The antifungal activity of these compounds was evaluated according to CLSI guidelines ([16]).

Cryptococcus neoformans [11] = experiment: MIC/MFC broth microdilution (CLSI); conditions: Cryptococcus neoformans;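 note: susceptibility testing followed the CLSI M27-Ed4 broth microdilution document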
Procedure: as §1

Aspergillus fumigatus [12] = experiment: checkerboard drug interaction (FICI, MICc); assay type: cell-based;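 note: simplified diagonal checkerboard screen pairing antifungals with FPPS inhibitors against Aspergillus fumigatus, with FICI calculated under the Loewe additivity model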
Procedure: as §2

Trichophyton rubrum [13] = experiment: checkerboard drug interaction (FICI, MICc);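 note: simplified diagonal checkerboard screen pairing azole antifungals with FPPS inhibitors, FICI calculated under the Loewe additivity model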; assay type: cell-based; conditions: T. rubrum
Procedure: as §2

Candida glabrata [14] = experiment: checkerboard drug interaction (FICI, MICc);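 for all read-outs here: simplified diagonal checkerboard screen pairing antifungals with FPPS inhibitors, FICI calculated under the Loewe additivity model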; assay type: cell-based; conditions: C. glabrata; for INH FD (MIC-MICc fold decrease): fold decrease of inhibitor MIC
Procedure: as §2

eight fungal species [15] = experiment: checkerboard interaction with azoles, summary across the eight species; assay type: cell-based; conditions: geometric mean MIC in combination with azoles
Description: Synergy between lipophilic FPPS inhibitors and azole antifungals was investigated by determining the fractional inhibitory concentration index (FICI) (Fig. 2; Table S1 Fig. S1) ([17]). […]. Derivatives PLA9 and 11, and PDA9, 11, and 12 antagonized azoles in C. albicans, C. neoformans, and C. deuterogattii, yet were largely synergistic in C. glabrata and S. cerevisiae. […].

Saccharomyces cerevisiae [16] = experiment: checkerboard drug interaction (FICI, MICc); assay type: cell-based; parameters: INH MICc / INH MICc (ITR:INH) / INH MICc (KET:INH) / INH MICc (FLC:INH): unit not given beside the values;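 note: simplified diagonal checkerboard screen pairing antifungals with FPPS inhibitors, FICI calculated under the Loewe additivity model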
Candida albicans [17] = experiment: MIC/MFC broth microdilution (CLSI); assay type: cell-based; conditions: Candida albicans SC5314
Procedure: as §1

Saccharomyces cerevisiae [18] = experiment: MIC/MFC broth microdilution (CLSI); assay type: cell-based; conditions: Saccharomyces cerevisiae S288c
Procedure: as §1

[19] = FLC:INH combination, MIC of the inhibitor in combination with FLC
[20] = FLC:INH combination, fold decrease of FLC MIC
[21] = ITR:INH combination, MIC of the inhibitor in combination with ITR
[22] = ITR:INH combination, fold decrease of ITR MIC
[23] = KET:INH combination, MIC of the inhibitor in combination with KET
[24] = KET:INH combination, fold decrease of KET MIC
[25] = Fractional Inhibitory Concentration Index, fluconazole + inhibitor
[26] = Fractional Inhibitory Concentration Index, itraconazole + inhibitor
[27] = Fractional Inhibitory Concentration Index, ketoconazole + inhibitor
[28] = MIC of the inhibitor in combination with fluconazole
[29] = MIC of the inhibitor in combination with itraconazole
[30] = MIC of the inhibitor in combination with ketoconazole
[31] = MIC-MICc fold decrease of fluconazole, negative = increase
[32] = MIC-MICc fold decrease of itraconazole, negative = increase
[33] = MIC-MICc fold decrease of ketoconazole, negative = increase
[34] = MIC-MICc fold decrease of the inhibitor, with fluconazole
[35] = MIC-MICc fold decrease of the inhibitor, with itraconazole
[36] = MIC-MICc fold decrease of the inhibitor, with ketoconazole

## CCCCCCCCCN1CCC[C@H]1C(=O)N[C@H](CC(=O)O)C(=O)O [PDA9]
HEK-293T cells
  IC50: > 256 mg/L
Trichophyton rubrum [1]
  MFC: > 128 mg/L
  MIC: > 128 mg/L
Candida albicans [2]; FLC:INH combination
  FICI: ≥4
  INH FD (MIC-MICc fold decrease): 4
Candida albicans [2]; [19]
  INH MICc: 64
Candida albicans [2]; [20]
  FLC FD (MIC-MICc fold decrease): < -4
Candida albicans [2]; ITR:INH combination
  FICI: ≥4
  INH FD (MIC-MICc fold decrease): 4
Candida albicans [2]; [21]
  INH MICc: 64
Candida albicans [2]; [22]
  ITR FD (MIC-MICc fold decrease): < -4
Candida albicans [2]; KET:INH combination
  FICI: ≥4
  INH FD (MIC-MICc fold decrease): 4
Candida albicans [2]; [23]
  INH MICc: 64
Candida albicans [2]; [24]
  KET FD (MIC-MICc fold decrease): < -4
Aspergillus flavus [3]
  MFC: > 128 mg/L
  MIC: > 128 mg/L
[4]; FLC:INH combination
  FICI: ≥4
  INH FD (MIC-MICc fold decrease): 1
[4]; [19]
  INH MICc: 256
[4]; [20]
  FLC FD (MIC-MICc fold decrease): -4
[4]; ITR:INH combination
  FICI: ≥4
  INH FD (MIC-MICc fold decrease): 1
[4]; [21]
  INH MICc: 256
[4]; [22]
  ITR FD (MIC-MICc fold decrease): < -4
[4]; KET:INH combination
  FICI: 2
  INH FD (MIC-MICc fold decrease): 1
[4]; [23]
  INH MICc: 256
[4]; [24]
  KET FD (MIC-MICc fold decrease): 1
Cryptococcus neoformans [5]; FLC:INH combination
  FICI: ≥4
  INH FD (MIC-MICc fold decrease): 1
Cryptococcus neoformans [5]; [19]
  INH MICc: 256
Cryptococcus neoformans [5]; [20]
  FLC FD (MIC-MICc fold decrease): < -4
Cryptococcus neoformans [5]; ITR:INH combination
  FICI: ≥4
  INH FD (MIC-MICc fold decrease): 2
Cryptococcus neoformans [5]; [21]
  INH MICc: 128
Cryptococcus neoformans [5]; [22]
  ITR FD (MIC-MICc fold decrease): -4
Cryptococcus neoformans [5]; KET:INH combination
  FICI: ≥4
  INH FD (MIC-MICc fold decrease): 2
Cryptococcus neoformans [5]; [23]
  INH MICc: 128
Cryptococcus neoformans [5]; [24]
  KET FD (MIC-MICc fold decrease): -4
[6]
  MFC: > 128 mg/L
  MIC: > 128 mg/L
Aspergillus fumigatus [7]
  MFC: > 128 mg/L
  MIC: > 128 mg/L
Aspergillus flavus [8]; [25]
  FICI (FLC:INH): 1
Aspergillus flavus [8]; [26]
  FICI (ITR:INH): 1.02
Aspergillus flavus [8]; [27]
  FICI (KET:INH): 1
Aspergillus flavus [8]; [28]
  INH MICc (FLC:INH): 128
Aspergillus flavus [8]; [29]
  INH MICc (ITR:INH): 4
Aspergillus flavus [8]; [30]
  INH MICc (KET:INH): 128
Aspergillus flavus [8]; [31]
  FLC FD (FLC:INH): 2
Aspergillus flavus [8]; [32]
  ITR FD (ITR:INH): 1
Aspergillus flavus [8]; [33]
  KET FD (KET:INH): 2
Aspergillus flavus [8]; [34]
  INH FD (FLC:INH): 2
Aspergillus flavus [8]; [35]
  INH FD (ITR:INH): 64
Aspergillus flavus [8]; [36]
  INH FD (KET:INH): 2
Candida glabrata [9]
  MFC: > 128 mg/L
  MIC: > 128 mg/L
Eight fungal species [10]; across eight species, read-out: Geometric mean MFC
  MFC: > 128 mg/L
Eight fungal species [10]; geometric mean across eight species, read-out: GM fungal MIC
  MIC: > 128 mg/L
Eight fungal species [10]; read-out: Geometric mean MIC
  MIC: > 128 mg/L
Cryptococcus neoformans [11]
  MFC: > 128 mg/L
  MIC: > 128 mg/L
Aspergillus fumigatus [12]; [25]
  FICI (FLC:INH): 2
Aspergillus fumigatus [12]; [26]
  FICI (ITR:INH): 0.25
Aspergillus fumigatus [12]; [27]
  FICI (KET:INH): 1.5
Aspergillus fumigatus [12]; [28]
  INH MICc (FLC:INH): 256
Aspergillus fumigatus [12]; [29]
  INH MICc (ITR:INH): 1
Aspergillus fumigatus [12]; [30]
  INH MICc (KET:INH): 128
Aspergillus fumigatus [12]; [31]
  FLC FD (FLC:INH): 1
Aspergillus fumigatus [12]; [32]
  ITR FD (ITR:INH): 4
Aspergillus fumigatus [12]; [33]
  KET FD (KET:INH): 1
Aspergillus fumigatus [12]; [34]
  INH FD (FLC:INH): 1
Aspergillus fumigatus [12]; [35]
  INH FD (ITR:INH): 256
Aspergillus fumigatus [12]; [36]
  INH FD (KET:INH): 2
Trichophyton rubrum [13]; [25]
  FICI (FLC:INH): 3
Trichophyton rubrum [13]; [26]
  FICI (ITR:INH): 2
Trichophyton rubrum [13]; [27]
  FICI (KET:INH): 0.75
Trichophyton rubrum [13]; [28]
  INH MICc (FLC:INH): 256
Trichophyton rubrum [13]; [29]
  INH MICc (ITR:INH): 256
Trichophyton rubrum [13]; [30]
  INH MICc (KET:INH): 64
Trichophyton rubrum [13]; [31]
  FLC FD (FLC:INH): -2
Trichophyton rubrum [13]; [32]
  ITR FD (ITR:INH): 1
Trichophyton rubrum [13]; [33]
  KET FD (KET:INH): 2
Trichophyton rubrum [13]; [34]
  INH FD (FLC:INH): 1
Trichophyton rubrum [13]; [35]
  INH FD (ITR:INH): 1
Trichophyton rubrum [13]; [36]
  INH FD (KET:INH): 4
Candida glabrata [14]; FLC:INH combination
  FICI: 0.31
  INH FD (MIC-MICc fold decrease): 64
Candida glabrata [14]; [19]
  INH MICc: 4
Candida glabrata [14]; [20]
  FLC FD (MIC-MICc fold decrease): 4
Candida glabrata [14]; ITR:INH combination
  FICI: 0.28
  INH FD (MIC-MICc fold decrease): 128
Candida glabrata [14]; [21]
  INH MICc: 2
Candida glabrata [14]; [22]
  ITR FD (MIC-MICc fold decrease): 4
Candida glabrata [14]; KET:INH combination
  FICI: 0.28
  INH FD (MIC-MICc fold decrease): 128
Candida glabrata [14]; [23]
  INH MICc: 2
Candida glabrata [14]; [24]
  KET FD (MIC-MICc fold decrease): 4
Eight fungal species [15]
  GM fungal MICc: 52.3
Saccharomyces cerevisiae [16]; [25]
  FICI (FLC:INH): 0.75
Saccharomyces cerevisiae [16]; [26]
  FICI (ITR:INH): 2.06
Saccharomyces cerevisiae [16]; [27]
  FICI (KET:INH): 0.5
Saccharomyces cerevisiae [16]; [28]
  INH MICc (FLC:INH): 64
Saccharomyces cerevisiae [16]; [29]
  INH MICc (ITR:INH): 16
Saccharomyces cerevisiae [16]; [30]
  INH MICc (KET:INH): 64
Saccharomyces cerevisiae [16]; [31]
  FLC FD (FLC:INH): 2
Saccharomyces cerevisiae [16]; [32]
  ITR FD (ITR:INH): -2
Saccharomyces cerevisiae [16]; [33]
  KET FD (KET:INH): 4
Saccharomyces cerevisiae [16]; [34]
  INH FD (FLC:INH): 4
Saccharomyces cerevisiae [16]; [35]
  INH FD (ITR:INH): 16
Saccharomyces cerevisiae [16]; [36]
  INH FD (KET:INH): 4
Candida albicans [17]
  MFC: > 128 mg/L
  MIC: > 128 mg/L
Saccharomyces cerevisiae [18]
  MFC: > 128 mg/L
  MIC: > 128 mg/L

— article PMC12892976, “Alkylation-based optimization of antifungal FPPS inhibitors yields a potent, broad-spectrum lipophilic zoledronate derivative” (mBio, 2025)
